Measured values reported in publication PMC6680510, “Benzotriazine Di-Oxide Prodrugs for Exploiting Hypoxia and Low Extracellular pH in Tumors” (Molecules, 2019).
Read-outs that look alike come from different tables or passages of the source.

Columns and labels:
FaDu cells = assay: IC50 assay (inhibition of proliferation, 4 h exposure, SRB); type: cell-based; conditions: for IC50: Homo sapiens, 4 h
SiHa cells = assay: as above; conditions: SiHa; for IC50: Homo sapiens, 4 h
Description: Cells were seeded in 96-well plates (SiHa or FaDu 1500 cells/well, UT-SCC-74B 800 cells/well) in 100 μL. After incubation for 2 h, the drugs were added in 50 μL of the same titrated medium at 3× the final concentration to duplicate the wells. After a further 4 h the plates were checked for drug precipitation using a phase contrast microscope, then drugs were removed by aspirating and washing with the standard (pH 7.4) medium, then aspirating again and adding 150 μL of the medium. Cultures were then grown for 5 days before staining with sulphorhodamine B and measuring absorbance, with the estimation of IC50 values using 4-parameter logistic regression, as previously carried out.
The medium and plasticware was equilibrated in the chamber for 3 days prior to use. In the anoxia experiments, FaDu cells were plated in poly-L-lysine coated plates (Corning Cat # 356461) to improve attachment.
Cells were subsequently grown under standard cell culture conditions (oxia, pHe 7.4) for 5 days before staining with sulforhodamine B (SRB). […] (B) SN30000 (2). (C) BTO acid 4a. Values are means and errors are ranges for duplicate cultures in a single experiment. Fitted curves are 4-parameter logistic regressions. PCR = pH cytotoxicity ratio. ACR = anoxia cytotoxicity ratio. TMR = tumor microenvironment ratio.

[1] = Solubility in AlphaMEM + 5% FBS, pH 7.4; conditions: culture medium (AlphaMEM + 5% FBS), pH 7.4, plasma or biological fluid
[2] = pHe 6.5, 4 h, anoxic, read-out: Anoxic IC50
[3] = pHe 6.5, 4 h, oxic, read-out: Oxic IC50
[4] = pHe 7.4, 4 h, anoxic, read-out: Anoxic IC50
[5] = pHe 7.4, 4 h, oxic, read-out: Oxic IC50
[6] = read-out: Anoxic IC50, SiHa, pHe 6.5, 4 h, anoxic
[7] = read-out: Anoxic IC50, SiHa, pHe 7.4, 4 h, anoxic
[8] = read-out: Oxic IC50, SiHa, pHe 6.5, 4 h, oxic
[9] = read-out: Oxic IC50, SiHa, pHe 7.4, 4 h, oxic

Row | SMILES | TMR (oxic IC50 pHe 7.4/anoxic IC50 pHe 6.5) (FaDu cells) | IC50 (FaDu cells; [2]) [µM] | IC50 (FaDu cells; [3]) [µM] | IC50 (FaDu cells; [4]) [µM] | IC50 (FaDu cells; [5]) [µM] | PCR Anoxic (IC50 at pHe 7.4/IC50 at pHe 6.5) (FaDu cells; anoxic) | PCR oxic (IC50 at pHe 7.4/IC50 at pHe 6.5) (FaDu cells; oxic) | ACR (oxic IC50/anoxic IC50) (FaDu cells; pHe 6.5) | ACR (oxic IC50/anoxic IC50) (FaDu cells; pHe 7.4) | IC50 (SiHa cells; [6]) [µM] | IC50 (SiHa cells; [7]) [µM] | IC50 (SiHa cells; [8]) [µM] | IC50 (SiHa cells; [9]) [µM] | TMR (overall TME ratio = oxic IC50 pHe 7.4/anoxic IC50 pHe 6.5) (SiHa cells) | PCR Anoxic (IC50 at pHe 7.4/IC50 at pHe 6.5) (SiHa cells) | PCR oxic (IC50 at pHe 7.4/IC50 at pHe 6.5) (SiHa cells) | ACR (anoxic cytotoxicity ratio = oxic IC50/anoxic IC50) (SiHa cells; pHe 6.5) | ACR (anoxic cytotoxicity ratio = oxic IC50/anoxic IC50) (SiHa cells; pHe 7.4) | solubility ([1]; thermodynamic from solid) [µM] | solubility ([1]; kinetic from dmso stock) [µM] | further results
1 | CCOC(=O)CNc1n[n+]([O-])c2ccccc2[n+]1[O-] [Compound 8b, Ethyl [(1,4-Dioxido-1,2,4-benzotriazin-3-yl)amino]acetate] | 11.2 ± 2.9 | 8.55 ± 1.92 | 76.1 ± 17.9 | 5.25 ± 1.18 | 102 ± 9 | 0.61 ± 0.02 | 1.34 ± 0.33 | 8.89 ± 2.89 | 19.3 ± 4.7 | 2.5 ± 0.87 | 1.2 ± 0.35 | 21.6 ± 5.7 | 35.3 ± 3.1 | 14.1 ± 5.1 | 0.48 ± 0.22 | 1.63 ± 0.45 | 8.6 ± 3.8 | 29.4 ± 8.9 | 8600 | – | –
2 | COC(=O)CCNc1n[n+]([O-])c2cc3c(cc2[n+]1[O-])CCC3 [Compound 10b, 3-((3-Methoxy-3-oxopropyl)amino)-7,8-dihydro-6H-indeno[5,6-e][1,2,4]triazine 1,4-Dioxide] | 7.31 ± 1.08 | 40 ± 5.8 | 262 ± 29 | 43.7 ± 12.1 | 292 ± 8 | 1.09 ± 0.34 | 1.11 ± 0.13 | 6.56 ± 1.19 | 6.69 ± 1.86 | 21 ± 4.2 | 20.4 ± 4.8 | 208 ± 26 | 249 ± 50 | 11.9 ± 3.4 | 0.97 ± 0.30 | 1.20 ± 0.28 | 9.90 ±2.34 | 12.2 ± 3.8 | 350 | – | –
3 | CCOC(=O)CCCNc1n[n+]([O-])c2ccccc2[n+]1[O-] [Compound 11b, 3-((4-Ethoxy-4-oxobutyl)amino)benzo[e][1,2,4]triazine 1,4-Dioxide] | 10.1 ± 3.0 | 36.3 ± 4.8 | 274 ± 210 | 29 ± 2 | 368 ± 98 | 0.80 ± 0.12 | 1.34 ± 1.09 | 7.55 ± 5.87 | 12.7 ± 3.5 | 4.36 ± 0.56 | 3.55 ± 0.7 | 13.2 ± 0.9 | 14.5 ± 0.6 | 3.32 ± 0.45 | 0.81 ± 0.19 | 1.10 ± 0.09 | 3.04 ±0.44 | 4.08 ±0.82 | – | 1400 | –
4 | Cc1ccc2c(c1)[n+]([O-])nc(NCCCC(=O)O)[n+]2[O-] [Compound 12a, 3-((3-Carboxypropyl)amino)-7-methylbenzo[e][1,2,4]triazine 1,4-Dioxide] | >1 | 271 ± 53 | > 300 | > 300 | > 300 | >1 | – | >1 | – | 234 ± 17 | > 300 | > 300 | > 300 | >1 | >1 | – | >1 | – | – | > 890 | –
5 | CCOC(=O)CCCNc1n[n+]([O-])c2cc(C)ccc2[n+]1[O-] [Compound 12b, 3-((4-Ethoxy-4-oxobutyl)amino)-7-methylbenzo[e][1,2,4]triazine 1,4-Dioxide] | – | – | – | – | – | – | – | – | – | – | – | – | – | – | – | – | – | – | – | 160 | melting point: 191 to 192 °C
